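Assay format: 96-well plates, 48-hour exposure. The concentration for 50% growth inhibition is given as GI50. TGI: total growth inhibition.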
Columns and labels:
Experiment in all cases: inhibition of tumour cell growth, NCI panel, 48 h
LOX IMVI melanoma = tested on: LOX IMVI melanoma
MDA-MB-231 breast = tested on: MDA-MB-231 breast
SF-268 CNS = tested on: SF-268 CNS
KM12 colon = tested on: KM12 colon
HCT-15 colon = tested on: HCT-15 colon
NCI-H460 lung = tested on: NCI-H460 lung
UACC-257 melanoma = tested on: UACC-257 melanoma
COLO 205 colon = tested on: COLO 205 colon
MCF7 breast = tested on: MCF7 breast
HS 578T breast = tested on: HS 578T breast
OVCAR-8 ovarian = tested on: OVCAR-8 ovarian
A498 renal = tested on: A498 renal
OVCAR-3 ovarian = tested on: OVCAR-3 ovarian
NCI-H23 lung = tested on: NCI-H23 lung
NCI-H522 lung = tested on: NCI-H522 lung
SK-MEL-5 melanoma = tested on: SK-MEL-5 melanoma
SK-MEL-28 melanoma = tested on: SK-MEL-28 melanoma
U251 CNS = tested on: U251 CNS
ACHN renal = tested on: ACHN renal
RXF 393 renal = tested on: RXF 393 renal
EKVX NSCLC = tested on: EKVX NSCLC
HCT-116 colon = tested on: HCT-116 colon
A549 NSCLC = tested on: A549 NSCLC
K-562 leukemia = tested on: K-562 leukemia
M14 melanoma = tested on: M14 melanoma
SW-620 colon = tested on: SW-620 colon
RPMI-8226 leukemia = tested on: RPMI-8226 leukemia
NCI/ADR-RES ovarian = tested on: NCI/ADR-RES ovarian
DU-145 prostate = tested on: DU-145 prostate
OVCAR-5 ovarian = tested on: OVCAR-5 ovarian
IGROV1 ovarian = tested on: IGROV1 ovarian
SR leukemia = tested on: SR leukemia
SK-MEL-2 melanoma = tested on: SK-MEL-2 melanoma
UACC-62 melanoma = tested on: UACC-62 melanoma
MDA-MB-435 = tested on: MDA-MB-435
BT-549 breast = tested on: BT-549 breast
SF-295 CNS = tested on: SF-295 CNS
SF-539 CNS = tested on: SF-539 CNS
CAKI-1 renal = tested on: CAKI-1 renal
NCI-H226 lung = tested on: NCI-H226 lung
OVCAR-4 ovarian = tested on: OVCAR-4 ovarian
SNB-19 CNS = tested on: SNB-19 CNS
MALME-3M melanoma = tested on: MALME-3M melanoma
786-0 renal = tested on: 786-0 renal
MOLT-4 leukemia = tested on: MOLT-4 leukemia
PC-3 prostate = tested on: PC-3 prostate
SNB-75 CNS = tested on: SNB-75 CNS
T-47D breast = tested on: T-47D breast
HOP-92 NSCLC = tested on: HOP-92 NSCLC
HCC-2998 colon = tested on: HCC-2998 colon
HOP-62 NSCLC = tested on: HOP-62 NSCLC
CCRF-CEM leukemia = tested on: CCRF-CEM leukemia
HL-60(TB) leukemia = tested on: HL-60(TB) leukemia
SN12C renal = tested on: SN12C renal
TK-10 renal = tested on: TK-10 renal
HT29 colon = tested on: HT29 colon
UO-31 renal = tested on: UO-31 renal

Compound: O=c1c2cccc(Cl)c2sc2c(NCCCNCCO)nc3ccccc3c12
- GI50 (LOX IMVI melanoma): 1.41 µM
- TGI (LOX IMVI melanoma): 2.77 µM
- GI50 (MDA-MB-231 breast): 1.4 µM
- TGI (MDA-MB-231 breast): 3.54 µM
- GI50 (SF-268 CNS): 3.66 µM
- TGI (SF-268 CNS): 16.7 µM
- GI50 (KM12 colon): 1.87 µM
- TGI (KM12 colon): 3.73 µM
- GI50 (HCT-15 colon): 1.54 µM
- TGI (HCT-15 colon): 3.33 µM
- GI50 (NCI-H460 lung): 1.01 µM
- TGI (NCI-H460 lung): 2.32 µM
- GI50 (UACC-257 melanoma): 10.4 µM
- TGI (UACC-257 melanoma): 28 µM
- GI50 (COLO 205 colon): 1.9 µM
- TGI (COLO 205 colon): 4.39 µM
- GI50 (MCF7 breast): 1.13 µM
- TGI (MCF7 breast): 2.66 µM
- GI50 (HS 578T breast): 2.95 µM
- TGI (HS 578T breast): 14.8 µM
- GI50 (OVCAR-8 ovarian): 2.91 µM
- TGI (OVCAR-8 ovarian): 11.9 µM
- GI50 (A498 renal): 5.64 µM
- TGI (A498 renal): 19.3 µM
- GI50 (OVCAR-3 ovarian): 2.28 µM
- TGI (OVCAR-3 ovarian): 6.19 µM
- GI50 (NCI-H23 lung): 3.62 µM
- TGI (NCI-H23 lung): 16.5 µM
- GI50 (NCI-H522 lung): 1.99 µM
- TGI (NCI-H522 lung): 4.42 µM
- GI50 (SK-MEL-5 melanoma): 6.5 µM
- TGI (SK-MEL-5 melanoma): 21 µM
- GI50 (SK-MEL-28 melanoma): 1.85 µM
- TGI (SK-MEL-28 melanoma): 3.54 µM
- GI50 (U251 CNS): 1.84 µM
- TGI (U251 CNS): 4.13 µM
- GI50 (ACHN renal): 1.44 µM
- TGI (ACHN renal): 2.8 µM
- GI50 (RXF 393 renal): 1.69 µM
- TGI (RXF 393 renal): 4 µM
- GI50 (EKVX NSCLC): 3.4 µM
- TGI (EKVX NSCLC): 17.5 µM
- GI50 (HCT-116 colon): 1.57 µM
- TGI (HCT-116 colon): 3.13 µM
- GI50 (A549 NSCLC): 1.31 µM
- TGI (A549 NSCLC): 3.39 µM
- GI50 (K-562 leukemia): 1.81 µM
- TGI (K-562 leukemia): 4.03 µM
- GI50 (M14 melanoma): 1.79 µM
- TGI (M14 melanoma): 3.54 µM
- GI50 (SW-620 colon): 1.41 µM
- TGI (SW-620 colon): 2.95 µM
- GI50 (RPMI-8226 leukemia): 2.1 µM
- TGI (RPMI-8226 leukemia): 5.45 µM
- GI50 (NCI/ADR-RES ovarian): 2.98 µM
- TGI (NCI/ADR-RES ovarian): 12.1 µM
- GI50 (DU-145 prostate): 1.98 µM
- TGI (DU-145 prostate): 4.85 µM
- GI50 (OVCAR-5 ovarian): 2.8 µM
- TGI (OVCAR-5 ovarian): 10.1 µM
- GI50 (IGROV1 ovarian): 0.941 µM
- TGI (IGROV1 ovarian): 6.86 µM
- GI50 (SR leukemia): 1.6 µM
- TGI (SR leukemia): 5.97 µM
- GI50 (SK-MEL-2 melanoma): 10.9 µM
- TGI (SK-MEL-2 melanoma): 26.3 µM
- GI50 (UACC-62 melanoma): 1.65 µM
- TGI (UACC-62 melanoma): 3.15 µM
- GI50 (MDA-MB-435): 1.82 µM
- TGI (MDA-MB-435): 3.55 µM
- GI50 (BT-549 breast): 14.8 µM
- TGI (BT-549 breast): 30.6 µM
- GI50 (SF-295 CNS): 6.29 µM
- TGI (SF-295 CNS): 20.2 µM
- GI50 (SF-539 CNS): 1.67 µM
- TGI (SF-539 CNS): 3.32 µM
- GI50 (CAKI-1 renal): 3.79 µM
- TGI (CAKI-1 renal): 17.6 µM
- GI50 (NCI-H226 lung): 6.24 µM
- TGI (NCI-H226 lung): 23.9 µM
- GI50 (OVCAR-4 ovarian): 5.43 µM
- TGI (OVCAR-4 ovarian): 19.6 µM
- GI50 (SNB-19 CNS): 5.8 µM
- TGI (SNB-19 CNS): 20 µM
- GI50 (MALME-3M melanoma): 1.61 µM
- TGI (MALME-3M melanoma): 3.15 µM
- GI50 (786-0 renal): 1.69 µM
- TGI (786-0 renal): 3.52 µM
- GI50 (MOLT-4 leukemia): 2.12 µM
- TGI (MOLT-4 leukemia): 5.19 µM
- GI50 (PC-3 prostate): 3.45 µM
- TGI (PC-3 prostate): 15.5 µM
- GI50 (SNB-75 CNS): 7.69 µM
- TGI (SNB-75 CNS): 22 µM
- GI50 (T-47D breast): 2.2 µM
- TGI (T-47D breast): 23 µM
- GI50 (HOP-92 NSCLC): 1.26 µM
- TGI (HOP-92 NSCLC): 7.82 µM
- GI50 (HCC-2998 colon): 1.62 µM
- TGI (HCC-2998 colon): 3.02 µM
- GI50 (HOP-62 NSCLC): 2.87 µM
- TGI (HOP-62 NSCLC): 17.1 µM
- GI50 (CCRF-CEM leukemia): 2.34 µM
- TGI (CCRF-CEM leukemia): 8.39 µM
- GI50 (HL-60(TB) leukemia): 2.4 µM
- TGI (HL-60(TB) leukemia): 5.49 µM
- GI50 (SN12C renal): 2.62 µM
- TGI (SN12C renal): 14 µM
- GI50 (TK-10 renal): 3.07 µM
- TGI (TK-10 renal): 7.69 µM
- GI50 (HT29 colon): 1.68 µM
- TGI (HT29 colon): 3.37 µM
- GI50 (UO-31 renal): 1.02 µM
- TGI (UO-31 renal): 3.95 µM

— PubChem BioAssay (NCI)
